Laboratory results as given in patent publication US6620423B2, “Use for pain management” (AstraZeneca AB, priority 1998, dated 2003).
Where a name gives a salt, the structure may show the parent alone.

Assays:
[1] = system: patients with orofacial muscle (myofascial) pain, masseter muscle tender points; assay: VAS pain at rest (jaw at rest) after intramuscular tender point injection; format: in vivo, human
Method: (§1) Ropivacaine hydrochloride 7.5 mg/ml solution for injection was used (Naropin®, Astra AB, Sweden). Ropivacaine was administered as a single dose intra-muscular tender point (TP) injection. Injection by means of one needle insertion per tender point was preceded by aspiration before infiltrating the study drug over the entire tender area. A standard disposable syringe with a 0.4 mm diameter needle was used. Injection rate was about 1 ml/30 sec. Injections were made at one occassion at a visit to the clinic. Follow-up data were obtained at a study end visit to the clinic 1 week after the injection. Ten patients (5 men and 5 women) whose age varied from 19 years to 69 years (mean 42.9 years of age) were included in this test. The duration of complaints ranged from 1 month up to 10 years (mean 26.5 months). All patients were subjected to unilateral injections of ropivacaine into tender points of the masseter muscle. Three patients received 1 ml, 5 patients received 2 ml, 1 patient received 3 ml and 1 patient received 4 ml of the study drug. (ii) Pain at rest The non-functional pain (jaw at rest) was also assessed by the patient on the VAS scale. This parameter was rated before the rating of pain on maximal mouth opening.

[2] = system: patients with orofacial muscle (myofascial) pain, masseter muscle tender points; assay: Frequency of pain episodes / freedom from muscular pain at follow-up; format: in vivo, human
Method: as §1, with “the injection. A case history information including the duration of the present orofacial muscle pain was collected. A clinical examination of the orofacial region including digital palpation of the temporomandibular joints and masticatory muscles. Ten patients” for “the injection. Ten patients”, “study drug.” for “study drug. (ii) Pain at rest The non-functional pain (jaw at rest) was also assessed by the patient on the VAS scale. This parameter was rated before the rating of pain on maximal mouth opening.”

[3] = system: patients with orofacial muscle (myofascial) pain, masseter muscle tender points; assay: VAS pain at maximal mouth opening after intramuscular tender point injection; format: in vivo, human
Method: Ropivacaine hydrochloride 7.5 mg/ml solution for injection was used (Naropin®, Astra AB, Sweden). Ropivacaine was administered as a single dose intra-muscular tender point (TP) injection. Injection by means of one needle insertion per tender point was preceded by aspiration before infiltrating the study drug over the entire tender area. A standard disposable syringe with a 0.4 mm diameter needle was used. Injection rate was about 1 ml/30 sec. Injections were made at one occassion at a visit to the clinic. Follow-up data were obtained at a study end visit to the clinic 1 week after the injection. Ten patients (5 men and 5 women) whose age varied from 19 years to 69 years (mean 42.9 years of age) were included in this test. The duration of complaints ranged from 1 month up to 10 years (mean 26.5 months). All patients were subjected to unilateral injections of ropivacaine into tender points of the masseter muscle. Three patients received 1 ml, 5 patients received 2 ml, 1 patient received 3 ml and 1 patient received 4 ml of the study drug. (i) Pain on maximal mouth opening The patient rated their pain on a 100 mm visual analogue scale (VAS). On the VAS, 0 represents “no pain” and 100 represents “worst pain imaginable”. The primary efficacy variable was VAS pain score at maximal mouth opening. The patient was asked to open the mouth as much as possible and then they rated the experienced pain.

[4] = system: patients with myofascial pain syndrome (MPS); conditions: bupivacaine 0.25%, lignocaine 1%, local injection, 107 patients; cited from earlier work

| Compound | Pain at rest, 100 mm VAS, Follow-up, Max ([1]; 10 patients, 7.5 mg/ml single i.m. injection, follow-up 1 week, baseline max 89) [mm] | Pain at rest, 100 mm VAS, Follow-up, Mean ([1]; 10 patients, 7.5 mg/ml single i.m. injection, follow-up 1 week, baseline mean 33.3) [mm] | Pain at rest, 100 mm VAS, Follow-up, Median ([1]; 10 patients, 7.5 mg/ml single i.m. injection, follow-up 1 week, baseline median 19.5) [mm] | Pain at rest, 100 mm VAS, Follow-up, Min ([1]; 10 patients, 7.5 mg/ml single i.m. injection, follow-up 1 week, baseline min 3) [mm] | Pain at rest, change as the result of the treatment ([1]; baseline vs follow-up, result in words) | Patients who became free or almost free of their muscular pain ([2]; FIG. 1, 10 patients treated) | Patients with pain at one occasion during the week prior to follow-up ([2]; of 10 patients) [patient] | Patients with pain several times a week or every day at follow-up ([2]; of 10 patients) [patients] | Patients with not a single episode with pain during the week prior to follow-up ([2]; of 10 patients, at baseline 2 had pain every day, 8 several times per week) [patients] | Pain at maximal jaw opening, 100 mm VAS, Follow-up, Max ([3]; 10 patients, 7.5 mg/ml single i.m. injection, follow-up 1 week, baseline max 95) [mm] | Pain at maximal jaw opening, 100 mm VAS, Follow-up, Mean ([3]; 10 patients, 7.5 mg/ml single i.m. injection, follow-up 1 week, baseline mean 59.3, S.D. 32.34) [mm] | Pain at maximal jaw opening, 100 mm VAS, Follow-up, Min ([3]; 10 patients, 7.5 mg/ml single i.m. injection, follow-up 1 week, baseline min 8) [mm] | Pain at maximal jaw opening, 100 mm VAS, Follow-up, Median ([3]; 10 patients, 7.5 mg/ml single i.m. tender point injection (1-4 ml), follow-up 1 week, baseline median 59.5) [mm] | VAS rated pain at maximal mouth opening, change as a result of the treatment ([3]; baseline vs follow-up 1 week, result in words) | Effect on pain compared between bupivacaine, lignocaine and saline [4] |
| --- | --- | --- | --- | --- | --- | --- | --- | --- | --- | --- | --- | --- | --- | --- | --- |
| CCCN1CCCC[C@H]1C(=O)Nc1c(C)cccc1C [ropivacaine, (S)-(−)-i-propyl-2′,6′-pipecoloxylidide hydrochloride] | 16 | 3.7 | 3.5 | 0 | decreased significantly | 6 out of the 10 | 1 | 3 | 6 | 75 | 27.3 | 0 | 6 | dramatic reduction | – |
| CCN(CC)CC(=O)Nc1c(C)cccc1C [lignocaine] | – | – | – | – | – | – | – | – | – | – | – | – | – | – | No significant difference |
| CCCCN1CCCCC1C(=O)Nc1c(C)cccc1C (stereo not shown) [bupivacaine] | – | – | – | – | – | – | – | – | – | – | – | – | – | – | No significant difference |
